Results reported in paper PMC4411090, “Activating the Wnt/β-Catenin Pathway for the Treatment of Melanoma – Application of LY2090314, a Novel Selective Inhibitor of Glycogen Synthase Kinase-3” (PLoS ONE, 2015).

Tests used:
GSK3β = target: T1, GSK3β (Homo sapiens, UniProt P49841); test: cell-free kinase assay with recombinant enzyme and phosphopeptide substrate; assay type: biochemical
T1 construct: gene GSK3B; human recombinant

GSK3α = target: T2, GSK3α (Homo sapiens, UniProt P49840); test: as above; assay type: biochemical
T2 construct: gene GSK3A; human recombinant
T2 sequence (P49840 2-483): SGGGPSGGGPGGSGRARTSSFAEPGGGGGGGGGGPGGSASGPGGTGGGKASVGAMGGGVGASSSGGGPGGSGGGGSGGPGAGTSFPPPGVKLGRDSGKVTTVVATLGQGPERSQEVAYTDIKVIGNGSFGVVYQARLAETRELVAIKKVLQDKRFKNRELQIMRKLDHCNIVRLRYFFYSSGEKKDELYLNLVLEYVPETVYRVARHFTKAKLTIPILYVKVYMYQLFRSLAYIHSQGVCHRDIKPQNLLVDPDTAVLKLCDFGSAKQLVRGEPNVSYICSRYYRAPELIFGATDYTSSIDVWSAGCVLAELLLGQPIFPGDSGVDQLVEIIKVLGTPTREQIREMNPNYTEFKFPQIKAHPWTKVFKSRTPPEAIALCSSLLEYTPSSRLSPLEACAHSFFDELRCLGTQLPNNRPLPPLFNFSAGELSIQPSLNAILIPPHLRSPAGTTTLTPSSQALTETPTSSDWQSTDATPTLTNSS

T1 sequence (P49841 whole entry): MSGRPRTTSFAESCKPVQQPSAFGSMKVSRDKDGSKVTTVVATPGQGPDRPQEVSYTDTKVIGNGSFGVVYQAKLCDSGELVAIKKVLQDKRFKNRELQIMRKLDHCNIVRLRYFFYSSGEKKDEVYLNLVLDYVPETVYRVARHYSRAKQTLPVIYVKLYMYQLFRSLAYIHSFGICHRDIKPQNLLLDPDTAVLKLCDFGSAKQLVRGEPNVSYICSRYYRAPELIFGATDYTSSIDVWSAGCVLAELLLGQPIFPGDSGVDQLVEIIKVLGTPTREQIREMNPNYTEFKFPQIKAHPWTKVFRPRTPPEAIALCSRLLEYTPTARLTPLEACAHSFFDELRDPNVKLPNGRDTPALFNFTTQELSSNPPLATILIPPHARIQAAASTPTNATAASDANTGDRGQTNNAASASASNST

O=C1NC(=O)C(c2cnc3ccccn23)=C1c1cn2c3c(cc(F)cc13)CN(C(=O)N1CCCCC1)CC2 [LY2090314]
IC50 (GSK3β): 0.9 nM | IC50 (GSK3α): 1.5 nM
